Source: patent US20190216835A1 (priority 2016, published 2019)

Test system: Zika virus strain MR766
Format: cell-based
Details: for effect on replication of Zika virus (percent infected cells, FIG. 1): Vero cells infected 48 h with ZIKV MR766, MOI 0.3-0.5, compound added at time of infection, DMSO control
Method: FIG. 1 is a bar graph showing the results of experiments wherein Vero cells were infected for 48 h with Zika virus MR766 and stained for DNA and double stranded viral RNA. The indicated compounds at the indicated concentrations were added at the time of infection. Mean percent infected cells of n=3 experiments are shown +/−SD.
FIG. 2 is a set of images of Vero cells infected for 48 h with Zika virus MR766 and stained for DNA (blue) and double stranded viral RNA (green). Either Lanatoside 6 nM or DMSO (v/v) was added at the time of infection. Mean percent infected cells of n=3 experiments are shown +/−SD.
The effects of a number of small molecules previously reported to be effective in inhibiting replication of related viruses were evaluated on replication of the Zika virus using an immunofluorescence readout for viral protein expression. Molecules tested included Ivermectin 18898-1G; Mycophenolic acid M3536-50MG; Brequinar SML0113-5MG; Sodium Oxamate O2751-5G; Chloroquine C6628-25G; Hydroxychloroquine H0915-5MG; and Lanatoside C L2261-100MG.
Cells: Vero cells (ATCC, CCL-81) were cultured in complete Dulbecco's Modified Eagle Media (Sigma) with 10% FBS (Invitrogen) and 2 mM L-glutamine (Invitrogen).
Viruses: Zika virus strain MR766 was kindly provided by Dr. Robert Tesh at the World Reference Center for Emerging Viruses and Arboviruses at the University of Texas Medical Branch in Galveston Tex. MR766 was obtained originally from a Rhesus macaque in Uganda in 1947. Viruses were propagated in Vero cells (ATCC) (Dick et al., 1952) and the titer determined by standard plaque assays and immunofluorescence imaging assays for E protein expression.
Infection assays: Vero cells were plated the night before in a 384-well plate format. The following day the cells were infected with ZIKV MR766 at an MOI of 0.3-0.5 in the presence of the indicated compounds or the DMSO control (v/v). 48 hr post-infection the cells are fixed with formalin, permeabilized with 0.1% Triton-X100 and immunostained using the 4G2 monoclonal antibody against the E protein. The cells were then incubated with an Alexa Fluor 488 goat anti-mouse secondary and stained for DNA with Hoechst 33342. The cells were imaged on an automated Image Express Micro (IXM) microscope at 4× magnification. Images were analyzed using the MetaXpress software program to determine the total cells per well, and the percentage of infected cells in each well.

| Compound | effect on replication of Zika virus (percent infected cells, FIG. 1) | stopping replication of the virus (FIG. 2) (Vero cells infected 48 h with ZIKV MR766, Lanatoside 6 nM vs DMSO added at time of infection) |
| --- | --- | --- |
| 22,23-dihydroavermectin B1a+22,23-dihydroavermectin B1b [ivermectin] | significant effect | – |
| CC(=O)O[C@H]1C[C@H](O[C@H]2[C@@H](O)C[C@H](O[C@H]3[C@@H](O)C[C@H](O[C@H]4CC[C@@]5(C)[C@H](CC[C@@H]6[C@@H]5C[C@@H](O)[C@]5(C)[C@@H](C7=CC(=O)OC7)CC[C@]65O)C4)O[C@@H]3C)O[C@@H]2C)O[C@H](C)[C@H]1O[C@@H]1O[C@H](CO)[C@@H](O)[C@H](O)[C@H]1O [Lanatoside C, 3β-[4-O-β-D-Glycopyranosyl-4-O-(3-O-acetyl-β-D-digitoxopyranosyl)-4-O-β-D-digitoxopyranosyl-β-D-digitoxopyranosyl]-12β,14-dihydroxy-5β,14β-card-20(22)-enolid] | significant effect | effective at stopping replication of the virus |
| NC(=O)c1ncn([C@@H]2O[C@H](CO)[C@@H](O)[C@H]2O)n1 [ribavirin, 1-[(2R,3R,4S,5R)-3,4-dihydroxy-5-(hydroxymethyl)oxolan-2-yl]-1H-1,2,4-triazole-3-carboxamide] | significant effect | – |
